From ChEMBL document CHEMBL2412996, “Increase of anti-HIV activity of C-peptide fusion inhibitors using a bivalent drug design approach” (Bioorg Med Chem Lett, 2013)
pIC50: −log10 of the molar value. Square brackets hold non-standard residues; d marks the D form. Peptide text beside a SMILES is read from it. Ahx = NCCCCCC(=O)O; βAla = NCCC(=O)O

Tests used:
[1] = Inhibition of HIV1 HXB2 gp160-mediated cell-cell fusion between viral envelope expressing human HL2/3 cells to human TZM-bl cells expressing CD4, tat, and rev by luciferase reporter gene assay; assay type: cell-based; details: Human immunodeficiency virus 1, HXB2, TZM-bl
TZM-bl = assay: Inhibition of HIV1 HXB2 gp160-mediated cell-cell fusion between viral envelope expressing human HL2/3 cells to human TZM-bl cells expressing CD4, tat, and rev by luciferase reporter gene assay relative to C29; assay type: cell-based; details: Human immunodeficiency virus 1

| Structure (SMILES) | pIC50 [1] | Ratio (TZM-bl) |
| --- | --- | --- |
| CC[C@H](C)[C@H](NC(=O)[C@H](CC(C)C)NC(=O)[C@H](CO)NC(=O)[C@H](Cc1cnc[nH]1)NC(=O)[C@@H](NC(=O)[C@H](CC(C)C)NC(=O)[C@H](CO)NC(=O)[C@@H](NC(=O)[C@H](Cc1ccc(O)cc1)NC(=O)[C@H](CC(N)=O)NC(=O)[C@H](CC(N)=O)NC(=O)[C@@H](NC(=O)[C@H](CCC(=O)O)NC(=O)[C@H](CCCNC(=N)N)NC(=O)[C@H](CC(=O)O)NC(=O)[C@H](Cc1c[nH]c2ccccc12)NC(=O)[C@H](CCC(=O)O)NC(=O)[C@H](CCSC)NC(=O)[C@H](Cc1c[nH]c2ccccc12)NC(=O)[C@H](CS)NC(C)=O)[C@@H](C)CC)[C@@H](C)O)[C@@H](C)CC)C(=O)N[C@@H](CCC(=O)O)C(=O)N[C@@H](CCC(=O)O)C(=O)N[C@@H](CO)C(=O)N[C@@H](CCC(N)=O)C(=O)N[C@@H](CC(N)=O)C(=O)N[C@@H](CCC(N)=O)C(=O)N[C@@H](CCC(N)=O)C(=O)N[C@@H](CCC(=O)O)C(=O)N[C@@H](CCCCN)C(=O)N[C@@H](CC(N)=O)C(=O)O (Ac-CWMEWDREINNYTSLIHSLIEESQNQQEKN-OH) | 7.38 | 2.84 |
| CC[C@H](C)[C@H](NC(=O)[C@H](CC(C)C)NC(=O)[C@H](CO)NC(=O)[C@H](Cc1cnc[nH]1)NC(=O)[C@@H](NC(=O)[C@H](CC(C)C)NC(=O)[C@H](CO)NC(=O)[C@@H](NC(=O)[C@H](Cc1ccc(O)cc1)NC(=O)[C@H](CC(N)=O)NC(=O)[C@H](CC(N)=O)NC(=O)[C@@H](NC(=O)[C@H](CCC(=O)O)NC(=O)[C@H](CCCNC(=N)N)NC(=O)[C@H](CC(=O)O)NC(=O)[C@H](Cc1c[nH]c2ccccc12)NC(=O)[C@H](CCC(=O)O)NC(=O)[C@H](CCSC)NC(=O)[C@H](Cc1c[nH]c2ccccc12)NC(=O)CCCCCNC(=O)[C@H](CS)NC(C)=O)[C@@H](C)CC)[C@@H](C)O)[C@@H](C)CC)C(=O)N[C@@H](CCC(=O)O)C(=O)N[C@@H](CCC(=O)O)C(=O)N[C@@H](CO)C(=O)N[C@@H](CCC(N)=O)C(=O)N[C@@H](CC(N)=O)C(=O)N[C@@H](CCC(N)=O)C(=O)N[C@@H](CCC(N)=O)C(=O)N[C@@H](CCC(=O)O)C(=O)N[C@@H](CCCCN)C(=O)N[C@@H](CC(N)=O)C(=O)O (Ac-C[Ahx]WMEWDREINNYTSLIHSLIEESQNQQEKN-OH) | 7.31 | 2.41 |
| CC[C@H](C)[C@H](NC(=O)[C@H](CC(C)C)NC(=O)[C@H](CO)NC(=O)[C@H](Cc1cnc[nH]1)NC(=O)[C@@H](NC(=O)[C@H](CC(C)C)NC(=O)[C@H](CO)NC(=O)[C@@H](NC(=O)[C@H](Cc1ccc(O)cc1)NC(=O)[C@H](CC(N)=O)NC(=O)[C@H](CC(N)=O)NC(=O)[C@@H](NC(=O)[C@H](CCC(=O)O)NC(=O)[C@H](CCCNC(=N)N)NC(=O)[C@H](CC(=O)O)NC(=O)[C@H](Cc1c[nH]c2ccccc12)NC(=O)[C@H](CCC(=O)O)NC(=O)[C@H](CCSC)NC(=O)[C@H](Cc1c[nH]c2ccccc12)NC(=O)CCNC(=O)[C@H](CS)NC(C)=O)[C@@H](C)CC)[C@@H](C)O)[C@@H](C)CC)C(=O)N[C@@H](CCC(=O)O)C(=O)N[C@@H](CCC(=O)O)C(=O)N[C@@H](CO)C(=O)N[C@@H](CCC(N)=O)C(=O)N[C@@H](CC(N)=O)C(=O)N[C@@H](CCC(N)=O)C(=O)N[C@@H](CCC(N)=O)C(=O)N[C@@H](CCC(=O)O)C(=O)N[C@@H](CCCCN)C(=O)N[C@@H](CC(N)=O)C(=O)O (Ac-C[βAla]WMEWDREINNYTSLIHSLIEESQNQQEKN-OH) | 7.71 | 6.01 |
| CC[C@H](C)[C@H](NC(=O)[C@H](CC(C)C)NC(=O)[C@H](CCC(=O)O)NC(=O)[C@H](CCC(=O)O)NC(=O)[C@@H](NC(=O)[C@H](CCCCN)NC(=O)[C@H](CCCCN)NC(=O)[C@@H](NC(=O)[C@H](Cc1ccc(O)cc1)NC(=O)[C@H](CCC(=O)O)NC(=O)[C@H](CCC(=O)O)NC(=O)[C@@H](NC(=O)[C@H](CCCCN)NC(=O)[C@H](CCCCN)NC(=O)[C@H](CC(=O)O)NC(=O)[C@H](Cc1c[nH]c2ccccc12)NC(=O)[C@H](CCC(=O)O)NC(=O)[C@H](CCC(=O)O)NC(=O)[C@H](Cc1c[nH]c2ccccc12)NC(C)=O)[C@@H](C)CC)[C@@H](C)O)[C@@H](C)CC)C(=O)N[C@@H](CCCCN)C(=O)N[C@@H](CCCCN)C(=O)N[C@@H](CO)C(=O)O (Ac-WEEWDKKIEEYTKKIEELIKKS-OH) | 6.46 | – |
| CC[C@H](C)[C@H](NC(=O)[C@H](CC(C)C)NC(=O)[C@H](CO)NC(=O)[C@H](Cc1cnc[nH]1)NC(=O)[C@@H](NC(=O)[C@H](CC(C)C)NC(=O)[C@H](CO)NC(=O)[C@@H](NC(=O)[C@H](Cc1ccc(O)cc1)NC(=O)[C@H](CC(N)=O)NC(=O)[C@H](CC(N)=O)NC(=O)[C@@H](NC(=O)[C@H](CCC(=O)O)NC(=O)[C@H](CCCNC(=N)N)NC(=O)[C@H](CC(=O)O)NC(=O)[C@H](Cc1c[nH]c2ccccc12)NC(=O)[C@H](CCC(=O)O)NC(=O)[C@H](CCSC)NC(=O)[C@H](Cc1c[nH]c2ccccc12)NC(C)=O)[C@@H](C)CC)[C@@H](C)O)[C@@H](C)CC)C(=O)N[C@@H](CCC(=O)O)C(=O)N[C@@H](CCC(=O)O)C(=O)N[C@@H](CO)C(=O)O (Ac-WMEWDREINNYTSLIHSLIEES-OH) | 5.91 | – |
| CC[C@H](C)[C@H](NC(=O)[C@H](CC(C)C)NC(=O)[C@H](CO)NC(=O)[C@H](Cc1cnc[nH]1)NC(=O)[C@@H](NC(=O)[C@H](CC(C)C)NC(=O)[C@H](CO)NC(=O)[C@@H](NC(=O)[C@H](Cc1ccc(O)cc1)NC(=O)[C@H](CC(N)=O)NC(=O)[C@H](CC(N)=O)NC(=O)[C@@H](NC(=O)[C@H](CCC(=O)O)NC(=O)[C@H](CCCNC(=N)N)NC(=O)[C@H](CC(=O)O)NC(=O)[C@H](Cc1c[nH]c2ccccc12)NC(=O)[C@H](CCC(=O)O)NC(=O)[C@H](CCSC)NC(=O)[C@H](Cc1c[nH]c2ccccc12)NC(C)=O)[C@@H](C)CC)[C@@H](C)O)[C@@H](C)CC)C(=O)N[C@@H](CCC(=O)O)C(=O)N[C@@H](CCC(=O)O)C(=O)N[C@@H](CO)C(=O)N[C@@H](CCC(N)=O)C(=O)N[C@@H](CC(N)=O)C(=O)N[C@@H](CCC(N)=O)C(=O)N[C@@H](CCC(N)=O)C(=O)N[C@@H](CCC(=O)O)C(=O)N[C@@H](CCCCN)C(=O)N[C@@H](CC(N)=O)C(=O)O (Ac-WMEWDREINNYTSLIHSLIEESQNQQEKN-OH) | 6.93 | – |
| CC[C@H](C)[C@H](NC(=O)[C@H](CC(C)C)NC(=O)[C@H](CO)NC(=O)[C@H](Cc1cnc[nH]1)NC(=O)[C@@H](NC(=O)[C@H](CC(C)C)NC(=O)[C@H](CO)NC(=O)[C@@H](NC(=O)[C@H](Cc1ccc(O)cc1)NC(=O)[C@H](CC(N)=O)NC(=O)[C@H](CC(N)=O)NC(=O)[C@@H](NC(=O)[C@H](CCC(=O)O)NC(=O)[C@H](CCCNC(=N)N)NC(=O)[C@H](CC(=O)O)NC(=O)[C@H](Cc1c[nH]c2ccccc12)NC(=O)[C@H](CCC(=O)O)NC(=O)[C@H](CCSC)NC(=O)[C@H](Cc1c[nH]c2ccccc12)NC(C)=O)[C@@H](C)CC)[C@@H](C)O)[C@@H](C)CC)C(=O)N[C@@H](CCC(=O)O)C(=O)N[C@@H](CCC(=O)O)C(=O)N[C@@H](CO)C(=O)N[C@@H](CCC(N)=O)C(=O)N[C@@H](CC(N)=O)C(=O)N[C@@H](CCC(N)=O)C(=O)N[C@@H](CCC(N)=O)C(=O)N[C@@H](CCC(=O)O)C(=O)N[C@@H](CCCCN)C(=O)N[C@@H](CC(N)=O)C(=O)NCCCCCC(=O)N[C@@H](CS)C(=O)O (Ac-WMEWDREINNYTSLIHSLIEESQNQQEKN[Ahx]C-OH) | 6.69 | 0.58 |
